Measurements: publication PMC11995216, “End-to-End Backbone Cyclization Enhances Passive Permeability of bRo5 Oligomeric Depsipeptides with Nonlinear Size Dependence” (ACS Medicinal Chemistry Letters, 2025)
“And” between values parts separate entries of the source, which are not always exact repeats. Identical values can stand only once. Like-named read-outs stand apart in the source and are kept apart here.

Assays:
[1] = PAMPA, permeability assay across an artificial membrane; settings: for Acceptor Concentration, Ave: after incubation
PAMPA [2] = settings: UV detection
PAMPA [3] = system: PAMPA
PAMPA [4] = system: PAMPA; remark: listed apart in the source
PAMPA [5] = system: PAMPA; remark: listed apart in the source
PAMPA [6] = settings: calculated using Supplement Equation 1, UV detection

With `CCCCC[C@@H]1OC(=O)[C@@H](C)N(C)C(=O)[C@H](CCCCC)OC(=O)[C@@H](C)N(C)C(=O)[C@H](CCCCC)OC(=O)[C@@H](C)N(C)C1=O` [Compound C1.3, ent-verticilide B1] the “Diffusion (%)” value ([1]; PAMPA percent diffusion, C0 500 uM) was 18.04% and 18.0 ± 1.5%, the “Recovery (%)” value ([1]; PAMPA, (acceptor + donor)/total analyte, C0 500 uM) was 91% and the Papp at 500 uM ([1]; PAMPA, Ave, ELSD detection, C0 500 uM) was 4.24 ×10⁻⁶ cm/s. For the same compound, the Papp at 500 uM ([1]; PAMPA, ratio-based method, mean ± SD, C0 500 uM, UV detection) was 3.64 ± 0.42 ×10⁻⁶ cm/s, the recovery at 500 uM ([1]; PAMPA, Recovery (%), PAMPA, (acceptor + donor)/total analyte, C0 500 uM) was 91.2% and the “Acceptor Concentration, Ave” value ([1]; PAMPA, ELSD detection, C0 500 uM) was 101.2 µM. The “Acceptor Concentration, Ave” value ([1]; PAMPA, UV detection, C0 500 uM) was 89.4 µM, the Δ % diffusion ([1]; increase: difference between percent diffusion of macrocycle vs linear counterpart) was “↑3%” and the % recovery (PAMPA [2]; Well 1 / %R, Well 1) was 97% and 94% and 93%. For the same compound, the % recovery (PAMPA [2]; Well 2 / %R, Well 2) was 94% and 92%, the % recovery (PAMPA [2]; Well 3 / %R, Well 3) was 88% and 89% and 94% and the % recovery (PAMPA [2]; Well 4 / %R, Well 4) was 94% and 89% and 90%. For the same compound, the % recovery (PAMPA [2]; Well 5 / %R, Well 5) was 87%, the Acceptor Concentration (PAMPA [3]; Acceptor Concentration (uM) – ELSD Detection / [row 1]) was 102 µM and the Acceptor Concentration (PAMPA [3]; Acceptor Concentration (uM) – ELSD Detection / [row 2]) was 106 µM. The Acceptor Concentration (PAMPA [3]; Acceptor Concentration (uM) – ELSD Detection / [row 3]) was 96 µM, the Acceptor Concentration (PAMPA [3]; Acceptor Concentration (uM) – ELSD Detection / [row 4]) was 101 µM and the Acceptor Concentration (PAMPA [3]; Acceptor Concentration (uM) – ELSD Detection / [row 5]) was 106 µM. For the same compound, the Acceptor Concentration (PAMPA [3]; Acceptor Concentration (uM) – ELSD Detection / [row 6]) was 98.1 µM, the Acceptor Concentration (PAMPA [3]; Acceptor Concentration (uM) – ELSD Detection / [row 7]) was 103 µM and the Acceptor Concentration (PAMPA [3]; Acceptor Concentration (uM) – ELSD Detection / [row 8]) was 90.6 µM. For the same compound, the Acceptor Concentration (PAMPA [3]; Acceptor Concentration (uM) – ELSD Detection / [row 9]) was 103 µM, the Acceptor Concentration (PAMPA [3]; Acceptor Concentration (uM) – ELSD Detection / [row 10]) was 101 µM and the Acceptor Concentration (PAMPA [3]; Acceptor Concentration (uM) – ELSD Detection / [row 11]) was 96.3 µM. The Acceptor Concentration (PAMPA [3]; Acceptor Concentration (uM) – ELSD Detection / [row 12]) was 107 µM, the Acceptor Concentration (PAMPA [3]; Acceptor Concentration (uM) – ELSD Detection / [row 13]) was 112 µM and the Acceptor Concentration (PAMPA [3]; Acceptor Concentration (uM) – ELSD Detection / [row 14]) was 102 µM. For the same compound, the Acceptor Concentration (PAMPA [3]; Acceptor Concentration (uM) – ELSD Detection / [row 15]) was 94.9 µM, the Acceptor Concentration (PAMPA [3]; Acceptor Concentration (uM) – UV Detection / [row 1]) was 89.6 µM and the Acceptor Concentration (PAMPA [3]; Acceptor Concentration (uM) – UV Detection / [row 2]) was 100 µM. For the same compound, the Acceptor Concentration (PAMPA [3]; Acceptor Concentration (uM) – UV Detection / [row 3]) was 101 µM, the Acceptor Concentration (PAMPA [3]; Acceptor Concentration (uM) – UV Detection / [row 4]) was 93.8 µM and the Acceptor Concentration (PAMPA [3]; Acceptor Concentration (uM) – UV Detection / [row 5]) was 88.6 µM. For the same compound, the Acceptor Concentration (PAMPA [3]; Acceptor Concentration (uM) – UV Detection / [row 6]) was 79.9 µM, the Acceptor Concentration (PAMPA [3]; Acceptor Concentration (uM) – UV Detection / [row 7]) was 82.2 µM and the Acceptor Concentration (PAMPA [3]; Acceptor Concentration (uM) – UV Detection / [row 8]) was 95.3 µM. For the same compound, the Acceptor Concentration (PAMPA [3]; Acceptor Concentration (uM) – UV Detection / [row 9]) was 83.1 µM, the Acceptor Concentration (PAMPA [3]; Acceptor Concentration (uM) – UV Detection / [row 10]) was 88.1 µM and the Acceptor Concentration (PAMPA [3]; Acceptor Concentration (uM) – UV Detection / [row 11]) was 84 µM. For the same compound, the Acceptor Concentration (PAMPA [3]; Acceptor Concentration (uM) – UV Detection / [row 12]) was 81.4 µM, the Acceptor Concentration (PAMPA [3]; Acceptor Concentration (uM) – UV Detection / [row 13]) was 95.3 µM and the Acceptor Concentration (PAMPA [3]; Acceptor Concentration (uM) – UV Detection / [row 14]) was 92.2 µM. It also gave an Acceptor Concentration (PAMPA [3]; Acceptor Concentration (uM) – UV Detection / [row 15]) of 85.4 µM, a Papp (PAMPA [4]; Papp (x 10^-6 cm/s) – ELSD Detection / [row 1], ELSD Detection) of 4.16 ×10⁻⁶ cm/s and a Papp (PAMPA [4]; Papp (x 10^-6 cm/s) – ELSD Detection / [row 2], ELSD Detection) of 4.41 ×10⁻⁶ cm/s. It also gave a Papp (PAMPA [4]; Papp (x 10^-6 cm/s) – ELSD Detection / [row 3], ELSD Detection) of 3.96 ×10⁻⁶ cm/s, a Papp (PAMPA [4]; Papp (x 10^-6 cm/s) – ELSD Detection / [row 4], ELSD Detection) of 4.13 ×10⁻⁶ cm/s and a Papp (PAMPA [4]; Papp (x 10^-6 cm/s) – ELSD Detection / [row 5], ELSD Detection) of 4.45 ×10⁻⁶ cm/s. The Papp (PAMPA [4]; Papp (x 10^-6 cm/s) – ELSD Detection / [row 6], ELSD Detection) was 4.03 ×10⁻⁶ cm/s, the Papp (PAMPA [4]; Papp (x 10^-6 cm/s) – ELSD Detection / [row 9], ELSD Detection) was 4.31 ×10⁻⁶ cm/s and the Papp (PAMPA [4]; Papp (x 10^-6 cm/s) – ELSD Detection / [row 10], ELSD Detection) was 4.39 ×10⁻⁶ cm/s. For the same compound, the Papp (PAMPA [4]; Papp (x 10^-6 cm/s) – ELSD Detection / [row 11], ELSD Detection) was 3.96 ×10⁻⁶ cm/s, the Papp (PAMPA [4]; Papp (x 10^-6 cm/s) – ELSD Detection / [row 12], ELSD Detection) was 4.4 ×10⁻⁶ cm/s and the Papp (PAMPA [4]; Papp (x 10^-6 cm/s) – ELSD Detection / [row 13], ELSD Detection) was 5.05 ×10⁻⁶ cm/s. The Papp (PAMPA [4]; Papp (x 10^-6 cm/s) – ELSD Detection / [row 14], ELSD Detection) was 4.44 ×10⁻⁶ cm/s, the Papp (PAMPA [4]; Papp (x 10^-6 cm/s) – ELSD Detection / [row 15], ELSD Detection) was 4.01 ×10⁻⁶ cm/s and the Papp (PAMPA [4]; Papp (x 10^-6 cm/s) – UV Detection / [row 1], UV Detection) was 3.32 ×10⁻⁶ cm/s. For the same compound, the Papp (PAMPA [4]; Papp (x 10^-6 cm/s) – UV Detection / [row 2], UV Detection) was 4.01 ×10⁻⁶ cm/s, the Papp (PAMPA [4]; Papp (x 10^-6 cm/s) – UV Detection / [row 3], UV Detection) was 4.37 ×10⁻⁶ cm/s and the Papp (PAMPA [4]; Papp (x 10^-6 cm/s) – UV Detection / [row 4], UV Detection) was 3.67 ×10⁻⁶ cm/s. It also gave a Papp (PAMPA [4]; Papp (x 10^-6 cm/s) – UV Detection / [row 5], UV Detection) of 3.75 ×10⁻⁶ cm/s, a Papp (PAMPA [4]; Papp (x 10^-6 cm/s) – UV Detection / [row 7], UV Detection) of 3.19 ×10⁻⁶ cm/s and a Papp (PAMPA [4]; Papp (x 10^-6 cm/s) – UV Detection / [row 8], UV Detection) of 4 ×10⁻⁶ cm/s. The Papp (PAMPA [4]; Papp (x 10^-6 cm/s) – UV Detection / [row 9], UV Detection) was 3.36 ×10⁻⁶ cm/s, the Papp (PAMPA [4]; Papp (x 10^-6 cm/s) – UV Detection / [row 10], UV Detection) was 3.7 ×10⁻⁶ cm/s and the Papp (PAMPA [4]; Papp (x 10^-6 cm/s) – UV Detection / [row 11], UV Detection) was 3.24 ×10⁻⁶ cm/s. The Papp (PAMPA [4]; Papp (x 10^-6 cm/s) – UV Detection / [row 12], UV Detection) was 3.17 ×10⁻⁶ cm/s, the Papp (PAMPA [4]; Papp (x 10^-6 cm/s) – UV Detection / [row 13], UV Detection) was 3.78 ×10⁻⁶ cm/s and the Papp (PAMPA [4]; Papp (x 10^-6 cm/s) – UV Detection / [row 14], UV Detection) was 3.81 ×10⁻⁶ cm/s. The Papp (PAMPA [4]; Papp (x 10^-6 cm/s) – UV Detection / [row 15], UV Detection) was 3.57 ×10⁻⁶ cm/s, the donor concentration after incubation (PAMPA [5]; Well 1 / [donor]) was 396 µM and 390 µM and 380 µM and the donor concentration after incubation (PAMPA [5]; Well 2 / [donor]) was 370 µM and 376 µM and 374 µM. For the same compound, the donor concentration after incubation (PAMPA [5]; Well 3 / [donor]) was 341 µM and 351 µM and 372 µM, the donor concentration after incubation (PAMPA [5]; Well 4 / [donor]) was 377 µM and 362 µM and 356 µM and the donor concentration after incubation (PAMPA [5]; Well 5 / [donor]) was 347 µM and 349 µM and 351 µM. The %T (PAMPA [6]; Well 1 / %T, Well 1) was 0.44% (2×) and 0.41%, the %T (PAMPA [6]; Well 2 / %T, Well 2) was 0.51% and 0.43% (2×) and the %T (PAMPA [6]; Well 3 / %T, Well 3) was 0.54% and 0.51% and 0.49%. For the same compound, the %T (PAMPA [6]; Well 4 / %T, Well 4) was 0.48% (2×) and 0.45% and the %T (PAMPA [6]; Well 5 / %T, Well 5) was 0.48% (2×) and 0.47%.
